Test results from US8119589B2, “Modulation of CD4+ T cell responses by a tick saliva protein, Salp15 and polypeptides derived therefrom” (University of North Carolina at Charlotte, priority 2004, dated 2012).

Assays:
mouse CD4+ T lymphocytes = test: TCR ligation-induced protein tyrosine phosphorylation in anti-CD3/CD28 stimulated CD4+ T cells (immunoblotting, confocal microscopy); type: cell-based
Protocol: Naïve CD4+ T cells from C3H/HeN, Balb/c, and B10.BR mice were purified as previously described (Anguita et al., 2002). CD4+ T cells were preincubated in Click's modified Bruff's Medium (Sigma Chemical Co., St. Louis, Mo., U.S.A.) for 10 minutes at 37° C. with and without Salp15 (50 μg/mL) and stimulated for 20 min or the indicated times at 37° C. with 10 μg/mL of anti-CD3ε, 1 μg/mL of anti-CD28, and 10 μg/mL of anti-armenian and syrian hamster IgG (BD Biosciences Pharmingen, San Jose, Calif., U.S.A.). Jurkat (E6-1) cells were stimulated using 5 μg/mL of OKT3 mAb (eBioscience, San Diego, Calif., U.S.A.) and 1 μg/mL of anti-human CD28 cross linked with 5 μg/mL anti-mouse IgG for the indicated times.
For the visualization of lipid rafts, phospho-tyrosine, and cytoskeleton reorganization, CD4^+, CD8^+ or Jurkat cells were cytospun for 10 minutes at 1000 RPM onto positively charged microslides (Fisher Scientific, Hampton, N.H., U.S.A.). The cells were fixed with 3.7% paraformaldehyde (Sigma Chemical Co.) for 15 minutes and stained with CTB594 (Molecular Probes, Eugene, Oreg., U.S.A.), AlexaFluor488 labeled phalloidin (Molecular Probes) or (1:50) biotin-conjugated anti-p-Tyr (PY99) followed by Streptavidin-AlexaFluor594 (1:100, Molecular Probes). For p-LAT and p-PLCγ1 staining, fixed cells were treated with PBS containing 0.1% Triton-X 100 and 100 mM glycine for 15 min at room temperature and stained using rabbit p-LAT (Tyr^191) or rabbit anti-p-PLCγ1 (Tyr^783) probed with anti-rabbit IgG488 (Molecular Probes).
For tyrosine phosphorylation western analysis, cells were lysed in 60 mM Tris (pH 7.4) containing 150 mM NaCl, 5 mM EDTA, 1 mM EGTA, 1 mM β-glycerol phosphate, 2.5 mM sodium pyrophosphate, 25 mM NaF, 2 mM sodium orthovanadate, 1% Triton-X 100, 0.25% sodium deoxycholate, 1 mM PMSF and protease inhibitors for 15 min on ice, sonicated 4×5 sec and incubated at 37° C. for 10 min. The lysate was cleared by centrifugation and boiled in SDS-sample buffer. The samples were subjected to SDS-PAGE, transferred to a nitrocellulose membrane and immunoblotted with anti-pTyr, anti-pPLCγ1 and anti-Vav1, anti-pSrc family (Tyr^416) to measure p-Lck^394 (Alonso et al., 2004), anti-Lck, anti-pZap70 (Tyr^319), anti-Zap70, p44/42 and p44/42 (phopho-Tyr^204/Thr^202). Vav1 was immunoprecipitated using anti-Vav1 and protein A-agarose beads overnight, subjected to SDS-PAGE followed by immunoblotting with anti-pTyr or anti-Vav1. To examine the effect of Salp15 on T cell stimulation with INFγ, CD4^+ T cells were preincubated with Salp15 at 50 μg/mL followed by activation with 20 ng/mL of mouse recombinant INFγ (R & D Systems, Minneapolis, Minn., U.S.A.) for 30 min at 37° C. The cells were lysed as above and subjected to SDS-PAGE and immunoblotting with anti-pSTAT1 and anti-STAT1.
Quantification of immunoblots was performed using the SCION IMAGE™ software package, Scion Corporation (Frederick, Md., U.S.A.).

CD4 co-receptor = target: T1, CD4 co-receptor (Homo sapiens, UniProt P01730); test: Co-immunoprecipitation with His-tagged Salp15 from Jurkat cell lysate; type: binding; settings: anti-His
T1 construct: 1-2×10^7 Jurkat, HeLa or HeLa-CD4 cells were lysed; endogenous in cells; host or cells: Jurkat
Protocol: For coimmunoprecipitation, 1-2×10^7 Jurkat, HeLa or HeLa-CD4 cells were lysed in 20 mM HEPES pH 7.4 containing 150 mM NaCl, 1% Triton-X 100, 0.25% sodium deoxycholate, 25 mM NaF, 2 mM Na3VO4, 1 mM PMSF and protease inhibitors for 15 min on ice. One mg of protein equivalent of the cell lysate was mixed with 50 μg/mL of 6× histidine-tagged-Salp15 or 6×His-tagged Salp13 fused to thioredoxin (29 kD) as a control protein, (Anguita et al., 2002, Das et al., 2001) and immunoprecipitated using an anti-poly-histidine antibody conjugated to agarose, anti-CD4, anti-CD3, anti-CD28 or normal rabbit IgG overnight at 4° C. The immunoprecipitate was run on SDS-PAGE followed by immunoblotting with anti-poly His-HRP, anti-CD4, anti-CD3, anti-CD28 or anti-TCRβ.

CD4+ T cells = test: Salp15488 binding on cell surface by confocal microscopy; set-up: species or system mouse
Protocol: For colocalization experiments, Jurkat and CD4^+ T cells were cytospun as described herein. HeLa and HeLa-CD4 cells were grown on chamber slides. The cells were fixed and stained with anti-CD4 and Salp15 as follows. Purified Salp15 was labeled using Alexa-488 with the Protein Labeling Kit (Molecular Probes) according to the manufacturer's instructions. Fixed cells were blocked with 5% normal serum and anti-CD16/CD32 (1:100) in PBS, incubated with 1 μg of monoclonal biotinylated anti-CD4 (L3T4) (BD Biosciences Pharmingen) followed by streptavidin594 staining. The cells were then stained with 20 μg/mL of Salp15488. For competition assays, cells were first blocked with 5% normal serum, incubated with either polyclonal anti-CD4 antibody, MT310, OKT4, normal rabbit IgG, Salp15 (0.5 mg/mL) or lysozyme (0.5 mg/mL) followed by staining with Salp15488. All samples were mounted in a GVA Mount (Zymed, San Francisco, Calif., U.S.A.) and visualized with an Olympus Confocal microscope equipped with Fluoview 3.0 software.

[1] = test system: splenic T cells from CD4-deficient mice and control T cells; test: IL-2 production by anti-CD3/CD28 stimulated T cells from CD4-deficient and B6 mice; type: cell-based, mouse; settings: 50 μg/mL Salp15, 72 hrs
Protocol: T-cells from CD4-deficient and B6 mice (The Jackson Laboratory, Bar Harbor, Me., U.S.A.) were purified by negative selection and activated for 72 hrs using 5 μg/ml of plate bound anti-CD3 and 1 μg/ml of anti-CD28 in the presence or absence of 50 μg/mL of Salp15. DO11.10 transgenic mouse (The Jackson Laboratory) CD4^+ T cells were purified by negative selection as before and incubated in the presence of 106/mL of syngeneic mitomycin C-treated (50 μg/ml for 40 min at 37° C.) antigen presenting cells (APCs) with 10 μg/mL of ovalbumin in the presence of 0.5, 5.0 and 50 μg/mL of Salp15 for 72 hrs. The supernatants were then collected and IL-2 measured by capture ELISA following the manufacturer's instruction (BD Biosciences Pharmingen).

[2] = Salp15 pretreatment, quantification of the specific bands

“Salp15: secreted salivary protein from Ixodes scapularis, SEQ ID NO: 2; recombinant His-tagged, produced in Drosophila S2 cells” was tested, and the “Reduction of PLCγ1 phosphorylation (Tyr783)” value (mouse CD4+ T lymphocytes; Salp15 pretreatment (50 μg/mL), anti-CD3/CD28 stimulated, compared to control treated cells) was 46%, the “Reduction in tyrosine phosphorylation of Vav1” value (mouse CD4+ T lymphocytes; Salp15 pretreatment, Vav1 immunoprecipitation, anti-pTyr immunoblot) was ~58% and the “Phosphorylation level of Lat at Tyr191” value (mouse CD4+ T lymphocytes; Salp15 pretreatment, immunofluorescence) was “reduced”. For the same substance, the “Reduction in tyrosine phosphorylation of Lck (Tyr394)” value (mouse CD4+ T lymphocytes; [2]) was “about 56%”, the “Reduction in tyrosine phosphorylation of Zap70 (Tyr319)” value (mouse CD4+ T lymphocytes; [2]) was ~67% and the “ERK activation (ERK1/2 phosphorylation)” value (mouse CD4+ T lymphocytes; anti-CD3/CD28 stimulation) was “does not impair”. The “Lck phosphorylation in the absence of T cell stimulation” value (mouse CD4+ T lymphocytes; no stimulation) was “did not induce”, the “Co-immunoprecipitation of CD4” value (CD4 co-receptor) was “co-immunoprecipitated” and the “Binding to CD4+ T cells” value (CD4+ T cells) was “bind specifically”. For the same substance, the “Inhibition (immunosuppressive activity, IL-2)” value ([1]; T cells from CD4-negative mice) was 33% and the “Inhibition (immunosuppressive activity, IL-2)” value ([1]; control T cells (B6 mice)) was 85%.
